Reference: publication PMC12081497, “Design, synthesis, and anti-breast cancer activity evaluation of novel 3-cyanopyridine derivatives as PIM-1 inhibitors” (Molecular Diversity, 2024)
Entries after “also recorded” stand apart in the source; their conditions may differ. Where two headings read alike, the source gives them in different places.

Experiments:
MCF-7 cells [1] = assay: Flow cytometric cell cycle analysis; type: cell-based, human; conditions: for Cell cycle comment (phase of arrest): MCF-7, 24 h
Experimental: The cell cycle encompasses four distinct phases: G1 phase, S phase (synthesis), G2 phase, and M phase. During G1, cellular amplification and preparation for DNA replication take place. The S phase involves DNA replication and chromatid duplication. In the G2 phase, DNA repair and further growth occur. The M phase is characterized by nuclear division. The investigation of the impact of compound 7h on cell cycle progression and the induction of apoptosis in MCF-7 cells. […] Subsequently, the cells were stained with PI/Annexin V and analyzed using flow cytometry (BD FASCCalibur). Upon analyzing the results (Table 3, Fig. 6), it was evident that the percentage of cell accumulation in the S phase increased in MCF-7 cells treated with compound 7h after 24 h of incubation.
Cell cycle analysis MCF-7 cell was seeded into six-well plates at a density of 2 × 10^5 cell per well and incubated for 24 h. The cell was cultured in RPMI 1640 supplemented with fetal bovine serum (FBS, 10%) and incubated at 37 °C and 5% CO2. The medium was removed and replaced with medium (final DMSO concentration, 1% v/v) containing compound 7h (0.283 µM). After incubation for 24 h and 48 h, the cell layer was trypsinized and washed with cold phosphate buffered saline (PBS) and fixed with 70% ethanol. The fixed cells were rinsed with PBS and then stained with the DNA fluorochrome PI in a solution containing Triton X-100 as well as RNase, keep 15 min at 37 °C according to the instruction manual. Then the samples were analyzed with a FACS Caliber flow cytometer (Becton Dickinson & Co., Franklin Lakes, NJ). The number of cells analyzed for each sample was 10,000 [39].

PIM-1 kinase = target: T1, PIM-1 kinase (Homo sapiens, UniProt P11309); assay: PIM-1 kinase inhibition assay (Promega PIM-1 kinase assay kit, ADP-Glo); type: biochemical; conditions: concentrations 10, 1, 0.1 and 0.01 µM, read-out: PIM1-Kinase IC50
T1 construct: purchased Promega V4032

MCF-7 cells [2] = assay: Apoptosis assay, Annexin V/PI flow cytometry; type: cell-based, human; conditions: MCF-7, 24 h
Experimental: Compound 7h was chosen to investigate its abilities in inducing cancer cell apoptosis. Cell cycle analysis of MCF-7 after treatment with compound 7h. To corroborate the ability of the compound to induce apoptosis, cells were stained with Annexin V/PI, incubated for 24 h, and analyzed.
The MCF-7 was treated with compound 7h for 24 h. After treatment, the cells were suspended in 0.5 mL of PBS, collected by centrifugation, and fixed in ice-cold 70% (v/ v) ethanol, centrifuged the ethanol-suspended cells for 5 min, suspended in 5 mL PBS and centrifuged for 5 min, re-suspended with 1 mL PI staining solution (0.1 mg/ml RNase) + PE Annexin V (component no. 51-65875X) and kept in dark at 37 °C for 10 min, finally analyzed by flow cytometry using FACS caliber (Becton Dickinson). The cell cycle distributions were calculated using Phoenix Flow Systems and Verity Software House.

[3] = system: MCF-7 human cancer cell line; assay: In vitro anti-proliferative MTT assay; type: cell-based; conditions: MTT, MCF-7, 48 h treatment, read-out: Cytotoxicity IC50, SD (±), MCF7
Experimental: In the present study, all synthesized cyanopyridine hybrids were subjected to in vitro cytotoxicity testing using the MTT assay method against MCF-7 human cancer.
All cell lines were maintained in RPMI1640 medium containing 10% FBS at 37 °C in 5% CO2 humidified incubator. Cell proliferation assay was determined by the MTT (3-[4,5-dimethyl-2-thiazolyl]-2,5- diphenyl-2H-tetrazolium bromide) method. Briefly, cells were plated in triplicate wells (3–5 × 10^4 cells/well) of 96-well flat-bottomed plates and incubated overnight prior to drug exposure and then treated with different concentrations of the tested compounds for 48 h. After that, 20 μL of MTT reagent at a final concentration of 0.5 mg/mL was added to each well. Cells were then incubated for 2 h with MTT, after which 100 μL of DMSO solution was added to dissolve the formazan salt resulting from the reduction of MTT and the absorbance was read at 570 nm using an automatic plate reader. The IC50 values were calculated according to inhibition ratios from three independent experiments.

T1 sequence (P11309 whole entry): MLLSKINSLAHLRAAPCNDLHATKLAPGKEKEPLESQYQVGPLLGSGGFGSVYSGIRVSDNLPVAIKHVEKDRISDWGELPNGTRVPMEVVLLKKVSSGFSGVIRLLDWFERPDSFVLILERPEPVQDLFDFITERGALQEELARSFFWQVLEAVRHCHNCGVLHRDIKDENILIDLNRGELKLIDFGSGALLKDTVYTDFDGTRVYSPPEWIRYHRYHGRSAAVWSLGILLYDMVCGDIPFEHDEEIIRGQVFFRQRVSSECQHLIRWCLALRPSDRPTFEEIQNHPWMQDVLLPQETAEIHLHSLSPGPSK

IC50 (PIM-1 kinase): 281 ± 12 nM
melting point: 295 to 297 °C
Structure (SMILES): COc1cc(-c2cc(-c3cccnc3)[nH]c(=O)c2C#N)ccc1OCC(=O)Nc1ccccc1 [7h, 2-(4-(3-Cyano-2-oxo-6-(pyridin-3-yl)-1,2-dihydropyridin-4-yl)-2-methoxyphenoxy)-N-phenylacetamide]
Cell cycle comment (phase of arrest) (MCF-7 cells [1]): arrested the tumor cells at the S phase; also recorded: cell cycle arrest at the S phase
Cell cycle comment (phase of arrest) (MCF-7 cells [1]; listed as 7 h): Cell growth arrest@ S
DNA content %G2/M (MCF-7 cells [1]; MCF-7, IC50 concentration of 7h, 24 h, control 13.14): 12.11%
DNA content %S (MCF-7 cells [1]; MCF-7, IC50 concentration of 7h, 24 h, control 25.83): 33.61%
DNA content %G0-G1 (MCF-7 cells [1]; MCF-7, IC50 concentration of 7h, 24 h, control 61.03): 54.28%
Apoptosis Late (MCF-7 cells [2]; control 0.27): 22.81%
Apoptosis Early (MCF-7 cells [2]; control 0.41): 15.42%
Necrosis (MCF-7 cells [2]; control 1.61): 3.95%
Apoptosis Total (MCF-7 cells [2]; control 2.29): 42.18%
IC50 ([3]; Homo sapiens, MCF7, 48 h): 1890 nM
IC50 [3]: 1890 ± 80 nM
